Measured values taken from PMC4919369, “A phase I study of the investigational NEDD8-activating enzyme inhibitor pevonedistat (TAK-924/MLN4924) in patients with metastatic melanoma” (Investigational New Drugs, 2016).
“And” between values parts separate entries of the source, which are not always exact repeats. Equal values may be shown once. “Also recorded” adds a separate entry of the source. Read-outs that look alike come from different tables or passages of the source.

Experiments:
[1] = test system: patients with metastatic melanoma; test: Adverse events (NCI CTCAE v3.0) in the phase I study, safety population; assay type: in vivo
Method: (§1) Patients received pevonedistat as 1 h intravenous infusions either on Days 1, 4, 8, and 11 (schedule A) or on Days 1, 8, and 15 (schedule B, weekly dosing) of 21-day cycles. For schedule A, intermittent dosing on Days 1, 4, 8, and 11 was chosen to match the twice-weekly schedule of the proteasome inhibitor bortezomib. The starting dose of 50 mg/m^2 was selected based on the toxicities and the MTD observed in another phase I study that investigated pevonedistat administration on Days 1–5 of 21-day cycles in patients with advanced solid tumors. It was hypothesized that intermittent dosing – extending the dose over a 2-week period – would be better tolerated than the continuous dosing schedule, which was associated with severe hepatotoxicity. Schedule B, which was added subsequently through a protocol amendment, was based on the rationale that weekly bortezomib has similar efficacy and is more convenient than the twice-weekly schedule. […] Patients could receive pevonedistat until disease progression or unacceptable drug-related toxicity, up to a maximum of 12 months.
(§2) Adverse events (AEs) were graded using the National Cancer Institute’s Common Terminology Criteria for AEs version 3.0. Response was assessed using the modified RECIST guideline (v1.1). Computed tomography or magnetic resonance imaging scans were performed at screening, at the end of Cycle 2, and then every other cycle.

[2] = test system: patients with metastatic melanoma; test: Dose escalation: DLTs and MTD determination (Bayesian continual reassessment method); assay type: in vivo; settings: schedule A (Days 1, 4, 8, and 11 of 21-day cycles), 1 h intravenous infusion
Method: as §1
Dose escalation proceeded via a Bayesian continual reassessment method using 2-patient cohorts and 1.33-fold dose increments over the previous dose level. Dose escalation decisions were based on occurrence of DLTs in Cycle 1 and the predicted MTD from the continual reassessment model (Supplementary Fig. S1). […]

[3] = test system: NAE-regulated transcriptional targets (ATF3, GCLM, GSR, MAG1, NQ01, SLC7A11, SRXN1, and TXNRD1); test: RT-PCR of NAE-regulated transcripts in whole blood; assay type: in vivo, human
Method: Blood samples for PD analysis were collected during Cycle 1. […] On schedule B samples were collected: at screening; on Day 1 within 1 h before dosing and 1, 2, 4, and 8 h after completion of infusion; on Day 8 within 1 h before dosing; and on Day 15 within 1 h before dosing and 1, 2, and 4 h after completion of infusion. Gene expression of NAE-regulated transcriptional targets (ATF3, GCLM, GSR, MAG1, NQ01, SLC7A11, SRXN1, and TXNRD1) in whole blood was analyzed by reverse-transcription polymerase chain reaction (RT-PCR). Raw data were transformed prior to calculation of percent change and assumptions were made for missing data, as previously described. Summary statistics were generated for the percent change from baseline at each time point for each gene.

[4] = test system: pevonedistat–NEDD8 adduct, Cdt1 and Nrf-2; test: Immunohistochemistry of paired tumor biopsies; assay type: in vivo, human
Method: For patients in the MTD expansion cohort, paired tumor biopsies were obtained at screening and at 3–6 h post-dosing on Day 4 (schedule A) or Day 8 (schedule B). […] Immunohistochemical analyses were performed at Millennium Pharmaceuticals, Inc. as previously described.

[5] = test system: patients with metastatic melanoma; test: Antitumor activity, response by modified RECIST v1.1; assay type: in vivo, human
Method: as §2

[6] = test system: patients with multiple myeloma or lymphoma; design: method as in PMID 26561559; settings: cited from earlier work
[7] = test system: patients with solid tumors; design: method as in PMID 26423795; settings: cited from earlier work
[8] = test system: patients with relapsed/refractory AML or MDS; design: method as in PMID 25733005; settings: cited from earlier work; for MTD: single-agent
[9] = test system: treatment-naïve elderly patients with AML; design: method as in earlier work; settings: in combination with azacitidine, Days 1, 3, and 5 schedule; cited from earlier work
NAE = test system: NAE; design: method as in PMID 21779466, PMID 15688063, PMID 19360080, PMID 23416079, PMID 24853380; settings: NAE inhibition; cited from earlier work
clinical = settings: human, in vivo
Method: (§3) Blood samples (3 mL) for PK analysis were collected during Cycle 1. On schedule A, serial samples were collected within 1 h before dosing on Day 1, immediately after completion of infusion (immediately before switching off infusion pump), and at 1, 4, and 7 h after completion of infusion. Samples were also collected on Days 2 and 3; on Days 4 and 8 (immediately before dosing and immediately after completion of infusion); on Day 11 immediately before dosing, immediately after completion of infusion, and at 4 and 7 h after completion of infusion; and on Day 15. On schedule B, blood samples were collected within 1 h before dosing on Day 1, immediately after completion of infusion (immediately before switching off infusion pump), and at 1, 2, 4, and 7 h after completion of infusion. Samples were also collected on Days 2, 3, and 4; and on Days 8 and 15 (immediately before dosing and immediately after completion of infusion). Samples were analyzed at Tandem Labs (West Trenton, NJ) for pevonedistat plasma concentrations using Good Laboratory Practice-validated liquid chromatography/tandem mass spectrometry methods. The dynamic ranges were 1–500 ng/mL for the low-range assay and 75–7500 ng/mL for the high-range assay.
(§4) The PK-evaluable population included all patients who received all protocol-defined doses in Cycle 1, had sufficient plasma concentration–time data to reliably estimate PK parameters, and had not received any excluded concomitant medications per protocol. Individual pevonedistat plasma concentration–time data were analyzed by noncompartmental methods using WinNonlin software (Version 6.2, Pharsight Corporation, Cary, NC). Plasma concentrations below the lower limit of quantification were set to zero for analysis.

[10] = Plasma pharmacokinetics (LC/MS/MS, noncompartmental analysis); settings: for Dose proportionality of plasma exposure: 50–278 mg/m^2, after Day 1 intravenous infusion; for Disposition profile following completion of the intravenous infusion: schedules A and B
Method: as §3, §4

[11] = Cycle 1, Day 1, 7 h post-dose, Schedule A MTD, 209 mg/m^2 (n=11)
[12] = Cycle 1, Day 1, 8 h post-dose, Schedule B, 157 mg/m^2 (n=8)
[13] = the patient with partial response, 209 mg/m^2 schedule A
[14] = nine melanoma patients in the first-in-human phase I study
[15] = human, plasma, intravenous, 157 mg/m^2

## NS(=O)(=O)OC[C@@H]1C[C@@H](n2ccc3c(N[C@H]4CCc5ccccc54)ncnc32)C[C@@H]1O [pevonedistat, Pevonedistat]
[1]; Schedule A (n = 26)
  On-study death: 2 (8) n (%)
[1]; Schedule B (n = 11)
  On-study death: 1 (9) n (%)
[1]; human, in vivo
  Severity of peripheral neuropathy: mild (grade 1)
[1]; in vivo
  Patients who experienced acute organ failure toxicities: Two
[1]; schedule A, 209 mg/m^2
  Tolerability at the MTD: generally well tolerated
[1]; schedule A, 209 mg/m^2, one patient after one dose, Day 9 of Cycle 1
  Drug-related death: grade 5 acute renal failure; also recorded: died due to drug-related acute renal failure
[2]
  Maximum tolerated dose (MTD): 209 mg/m^2
[3]; [11]
  ATF3 transcript, median % change from baseline (range): 88.6 (–38.6 to 385.0) %
  GCLM transcript, median % change from baseline (range): 105.3 (–33.0 to 234.2) %
  GSR transcript, median % change from baseline (range): 196.6 (–54.2 to 447.6) %
  MAG1 transcript, median % change from baseline (range): 99.1 (–22.4 to 236.4) %
  NQ01 transcript, median % change from baseline (range): 681.2 (–49.7 to 2740.6) %
  SLC7A11 transcript, median % change from baseline (range): 837.0 (–65.3 to 3873.9) %
  SRXN1 transcript, median % change from baseline (range): 142.0 (–50.5 to 340.0) %
  TXNRD1 transcript, median % change from baseline (range): 220.7 (–41.7 to 347.7) %
[3]; [12]
  ATF3 transcript, median % change from baseline (range): 260 (30.8 to 541.4) %
  GCLM transcript, median % change from baseline (range): 65.4 (20.0–108.0) %
  GSR transcript, median % change from baseline (range): 176.2 (93.2–216.6) %
  MAG1 transcript, median % change from baseline (range): 81.7 ( 39.0–158.2) %
  NQ01 transcript, median % change from baseline (range): 833.8 (330.6–2202.3) %
  SLC7A11 transcript, median % change from baseline (range): 727.4 (184.7 to 1660.0) %
  SRXN1 transcript, median % change from baseline (range): 81.5 (43.3 to 185.3) %
  TXNRD1 transcript, median % change from baseline (range): 156.9 (87.8 to 234.9) %
[3]; MTD on schedule A and schedule B
  Change of all eight NAE-regulated gene transcripts post-treatment: increases in NAE-regulated transcripts post-treatment; also recorded: significantly increased
[3]; data not shown
  Doses at which induction of all NAE-regulated transcriptional targets was observed: ≥ 50 mg/m^2
[4]; 3–6 h after Cycle 1, Day 4 dose, 3 patients, Schedule A MTD expansion cohort
  pevonedistat–NEDD8 adduct in post-dose tumor biopsy samples: positive
[4]; one patient with adequate biopsy tissue, schedule A MTD
  Immunohistochemical expression of Cdt1 and Nrf-2 in tumor: increased post-treatment
[5]; 31 response-evaluable patients
  Best response: progressive disease: 15 (48 %) patients
[5]; 31 response-evaluable patients, schedule A and B
  Best response: stable disease: 15 patients and 15 (48 %) patients
[5]; among the 15 patients who achieved stable disease
  Patients with stable disease lasting 6.5 months or longer: 4 patients
[5]; [13]
  Duration of response: 1.55 months
  Overall duration of stable disease or better: 4.4 months
[6]; Day 1, 2, 8, and 9 schedule
  MTD: 110 mg/m^2
[6]; Days 1, 4, 8, and 11 of 21-day cycles
  MTD: 196 mg/m^2
[6]
  DLTs: febrile neutropenia, AST elevation, muscle cramps, and thrombocytopenia
[7]; Days 1–5 and Days 1, 3, and 5 schedules
  MTD: 50–67 mg/m^2
[7]
  DLTs: ALT elevation, AST elevation, and hyperbilirubinemia
[7]; [14]
  Duration of stable disease in another patient: 6 months
  Patients achieving a partial response: one
[8]
  DLTs: multi-organ failure, reversible ALT elevation, AST/ALT elevation, cardiac failure, and acute renal failure
[8]; Days 1, 3, and 5 of 21-day cycles
  MTD: 50/59
[8]; Days 1, 4, 8, and 11 schedule
  MTD: 83 mg/m^2
[9]
  MTD: 20 mg/m^2
NAE
  Fraction of the proteins regulated by the UPS whose proteasomal degradation is prevented: ~ 20%
clinical
  Tmax: 1 h
  clearance: 635 mL/min
  half-life: 624 min
[10]
  Dose proportionality of plasma exposure: increased approximately proportionally with dose
  Disposition profile following completion of the intravenous infusion: biphasic disposition phase
[10]; listed as Pevonedistat
  Dose proportionality of plasma exposure: approximately dose-proportional
  Disposition profile following completion of the intravenous infusion: biphasic disposition profile
[10]; [15]
  AUC(0-inf): 8930 ng·h/mL
  AUC(0-t): 7250 ng·h/mL
  Cmax: 2450 ng/mL
  Tmax: 1 h
  clearance: 647 mL/min
  half-life: 606 min
[10]; human, plasma, iv
  half-life: ~600 min
